Test results reported in PubChem BioAssay (NCI).
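Five compound concentrations were applied to cells in 96-well plates for 48 hours; endpoints were derived by simple linear interpolation of the resulting dose-response curve. GI50 is the concentration that inhibits growth by half. TGI is the concentration that stops growth completely.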

How the values were obtained:
Test in all cases: NCI anticancer screen, dose series, 48 h
[1] = tested on: HT29 colon
[2] = tested on: SF-539 CNS
[3] = tested on: SF-295 CNS
[4] = tested on: OVCAR-8 ovarian
[5] = tested on: NCI-H522 lung
[6] = tested on: SW-620 colon
[7] = tested on: RXF 393 renal
[8] = tested on: SN12C renal
[9] = tested on: BT-549 breast
[10] = tested on: SK-MEL-5 melanoma

Compound: CSc1nnc2n1-c1ccccc1SCC2
- TGI [1]: > 100 µM
- TGI [2]: > 100 µM
- TGI [3]: > 100 µM
- TGI [4]: > 100 µM
- TGI [5]: > 100 µM
- TGI [6]: > 100 µM
- TGI [7]: > 100 µM
- TGI [8]: > 100 µM

Compound: O=C(O)c1cccc(F)c1C(=O)c1ccc2ccccc2c1
- TGI [1]: > 100 µM
- TGI [9]: > 100 µM
- TGI [2]: > 100 µM
- TGI [3]: > 100 µM
- TGI [4]: > 100 µM
- TGI [5]: > 100 µM
- TGI [6]: > 100 µM
- TGI [7]: > 100 µM
- TGI [8]: > 100 µM

Compound: C=C1[C@@H]2CCC(C)(C)[C@H]1CCC(=O)[C@@H]2C(=O)OC
- TGI [10]: > 100 µM
- TGI [1]: > 100 µM
- TGI [2]: > 100 µM
- TGI [3]: > 100 µM
- TGI [4]: > 100 µM
- TGI [6]: > 100 µM
- TGI [7]: > 100 µM
- TGI [8]: > 100 µM

Compound: CCOC(=O)/C(C#N)=C/c1[nH]c(C)c(C)c1C
- TGI [10]: > 100 µM
- TGI [1]: > 100 µM
- TGI [2]: > 100 µM
- TGI [3]: > 100 µM
- TGI [4]: > 100 µM
- TGI [5]: > 100 µM
- TGI [6]: > 100 µM
- TGI [7]: > 100 µM
- TGI [8]: > 100 µM

Compound: Cc1nc(N(C)C)nc(-c2cccc(-c3ccn(CCN(C)C)n3)c2)c1C
- GI50 [10]: 15.9 µM
- TGI [10]: > 20 µM
- GI50 [1]: > 20 µM
- TGI [1]: > 20 µM
- GI50 [9]: > 20 µM
- TGI [9]: > 20 µM
- GI50 [2]: > 20 µM
- TGI [2]: > 20 µM
- GI50 [4]: > 20 µM
- TGI [4]: > 20 µM
- GI50 [5]: > 20 µM
- TGI [5]: > 20 µM
- GI50 [6]: > 20 µM
- TGI [6]: > 20 µM
- GI50 [7]: > 20 µM
- TGI [7]: > 20 µM
- GI50 [8]: > 20 µM
- TGI [8]: > 20 µM

Compound: OC(c1cc2c(Cl)cc(Cl)cc2c2cc(C(F)(F)F)ccc12)C1CCCCN1 (stereo unspecified)
- GI50 [10]: 1.73 µM
- TGI [10]: 3.12 µM
- GI50 [1]: 1.97 µM
- TGI [1]: 3.71 µM
- GI50 [5]: 1.55 µM
- TGI [5]: 3.22 µM
- GI50 [6]: 1.76 µM
- TGI [6]: 3.64 µM
- GI50 [7]: 1.61 µM
- TGI [7]: 3.12 µM
- GI50 [8]: 1.8 µM
- TGI [8]: 3.38 µM

Compound: NCCCSCC(=O)O
- TGI [10]: > 100 µM
- TGI [1]: > 100 µM
- TGI [2]: > 100 µM
- TGI [3]: > 100 µM
- TGI [4]: > 100 µM
- TGI [5]: > 100 µM
- TGI [6]: > 100 µM
- TGI [7]: > 100 µM
- TGI [8]: > 100 µM

Compound: C[C@]12CC[C@H](O)CC1CCC[C@@H]2O (stereo partly specified)
- TGI [10]: > 100 µM
- TGI [1]: > 100 µM
- TGI [2]: > 100 µM
- TGI [3]: > 100 µM
- TGI [4]: > 100 µM
- TGI [5]: > 100 µM
- TGI [6]: > 100 µM
- TGI [7]: > 100 µM
- TGI [8]: > 100 µM

Compound: COc1cccc(/C=N/[N-]C(N)=O)c1[O-].[Cu+2].c1ccncc1
- TGI [10]: 37.2 µM
- TGI [1]: 85.3 µM
- TGI [2]: 54.2 µM
- TGI [3]: 62.4 µM
- TGI [4]: 86.1 µM
- TGI [5]: 34.6 µM
- TGI [6]: 40.8 µM
- TGI [7]: 28.6 µM
- TGI [8]: 46.7 µM

Compound: CC1(C)OC(=O)C(c2ccsc2)C(=O)O1
- TGI [10]: > 100 µM
- TGI [1]: > 100 µM
- TGI [2]: > 100 µM
- TGI [3]: > 100 µM
- TGI [4]: > 100 µM
- TGI [5]: > 100 µM
- TGI [6]: > 100 µM
- TGI [7]: > 100 µM
- TGI [8]: > 100 µM

Compound: O=c1cc(/C=C/c2ccccc2)c2ccc(O/C(=C\c3ccccc3)c3nc4ccccc4c(=O)o3)cc2o1
- TGI [10]: 41 µM
- TGI [2]: 63.2 µM
- TGI [3]: > 100 µM
- TGI [4]: > 100 µM
- TGI [6]: > 100 µM
- TGI [8]: > 100 µM

Compound: Cn1c(=O)ccc2cc(C(=O)c3ccccc3)ccc21
- TGI [10]: 55.7 µM
- TGI [1]: > 100 µM
- TGI [2]: > 100 µM
- TGI [3]: > 100 µM
- TGI [4]: > 100 µM
- TGI [5]: 82.7 µM
- TGI [6]: > 100 µM
- TGI [8]: > 100 µM

Compound: CCCCCCCCCCCCCCCc1nc(SCC(=O)O)n[nH]1
- TGI [10]: > 100 µM
- TGI [1]: > 100 µM
- TGI [2]: > 100 µM
- TGI [3]: > 100 µM
- TGI [4]: > 100 µM
- TGI [5]: > 100 µM
- TGI [6]: > 100 µM
- TGI [7]: > 100 µM
- TGI [8]: > 100 µM

Compound: COc1ccc2c(c1)[n+](=O)c(C(=O)C/C(=N\NC(=O)C[N+](C)(C)C)C(=O)Nc1cc(Cl)ccc1Cl)c(C)n2O
- TGI [10]: > 100 µM
- TGI [1]: > 100 µM
- TGI [2]: > 100 µM
- TGI [3]: > 100 µM
- TGI [4]: > 100 µM
- TGI [5]: > 100 µM
- TGI [6]: > 100 µM
- TGI [7]: > 100 µM
- TGI [8]: > 100 µM

Compound: CN1CCN(C(=S)N(C(=O)c2ccc(Cl)cc2)C2CCCCC2)CC1
- TGI [10]: > 100 µM
- TGI [1]: > 100 µM
- TGI [9]: > 100 µM
- TGI [3]: > 100 µM
- TGI [4]: > 100 µM
- TGI [5]: > 100 µM
- TGI [6]: > 100 µM
- TGI [7]: > 100 µM
- TGI [8]: > 100 µM

Compound: O=C1OC(=O)C2C1C1(c3ccccc3)OC2(c2ccccc2)c2c(Br)c(Br)c(Br)c(Br)c21 (stereo unspecified)
- TGI [10]: > 100 µM
- TGI [1]: > 100 µM
- TGI [2]: > 100 µM
- TGI [3]: > 100 µM
- TGI [4]: > 100 µM
- TGI [5]: > 100 µM
- TGI [6]: > 100 µM
- TGI [7]: > 100 µM
- TGI [8]: > 100 µM

Compound: Cn1c(=O)c2nc3sc4ccccc4c(=N)n3c2n(C)c1=O
- TGI [10]: > 100 µM
- TGI [1]: > 100 µM
- TGI [2]: > 100 µM
- TGI [3]: > 100 µM
- TGI [4]: > 100 µM
- TGI [5]: > 100 µM
- TGI [6]: > 100 µM
- TGI [7]: > 100 µM
- TGI [8]: > 100 µM

Compound: Fc1cccc(C2SCc3nc4ccccc4n32)c1 (stereo unspecified)
- TGI [10]: 29.4 µM
- TGI [1]: > 100 µM
- TGI [2]: > 100 µM
- TGI [3]: > 100 µM
- TGI [4]: > 100 µM
- TGI [5]: 96.1 µM
- TGI [6]: > 100 µM
- TGI [7]: > 10 µM
- TGI [8]: > 100 µM

Compound: O=c1c2ccc(Br)cc2nc(-c2ccccc2)n1NC1OC(CO)C(O)C(O)C1O (stereo unspecified)
- TGI [10]: > 100 µM
- TGI [1]: > 100 µM
- TGI [2]: > 100 µM
- TGI [3]: > 100 µM
- TGI [4]: > 100 µM
- TGI [5]: > 100 µM
- TGI [6]: > 100 µM
- TGI [8]: > 100 µM

Compound: COc1cc(C2C(C(=O)Nc3ccccc3C)=C(C)NC(C)=C2C(=O)Nc2ccccc2C)ccc1O
- TGI [10]: > 100 µM
- TGI [1]: > 100 µM
- TGI [2]: > 100 µM
- TGI [3]: > 100 µM
- TGI [4]: > 100 µM
- TGI [5]: > 100 µM
- TGI [6]: > 100 µM
- TGI [7]: > 100 µM
- TGI [8]: > 100 µM

Compound: COc1cc(Cl)c(C)cc1NC(=O)c1cc2ccccc2cc1O
- GI50 [10]: 1.72 µM
- TGI [10]: 3.93 µM
- GI50 [1]: 2.88 µM
- TGI [1]: 8.34 µM
- GI50 [2]: 2.81 µM
- TGI [2]: 10.4 µM
- GI50 [3]: 2.43 µM
- TGI [3]: 7.91 µM
- GI50 [4]: 2.7 µM
- TGI [4]: 10.4 µM
- GI50 [5]: 1.46 µM
- TGI [5]: 4.47 µM
- GI50 [6]: 3.27 µM
- TGI [6]: 13.6 µM
- GI50 [7]: 2.84 µM
- TGI [7]: 7.01 µM
- GI50 [8]: 1.68 µM
- TGI [8]: 10.1 µM

Compound: COc1ccc(/C=N/C2=C(C#N)C(c3ccccc3)c3ccc4ccccc4c3O2)cc1 (stereo unspecified)
- GI50 [10]: 0.336 µM
- TGI [10]: 7.95 µM
- GI50 [1]: 0.53 µM
- TGI [1]: > 100 µM
- GI50 [9]: 0.793 µM
- TGI [9]: > 100 µM
- GI50 [2]: 0.244 µM
- TGI [2]: 1.05 µM
- GI50 [3]: 0.314 µM
- TGI [3]: > 100 µM
- GI50 [4]: 0.486 µM
- TGI [4]: > 100 µM
- GI50 [5]: 0.128 µM
- TGI [5]: 5.5 µM
- GI50 [6]: 0.316 µM
- TGI [6]: > 100 µM
- GI50 [8]: 0.68 µM
- TGI [8]: > 100 µM
